Results on two compounds are retold here after publication PMC4941353, “Interaction of antihistaminic drugs with human translationally controlled tumor protein (TCTP) as novel approach for differentiation therapy” (Oncotarget, 2016).

Assay [1] concerns the target T1, translationally controlled tumor protein (TCTP) (Homo sapiens, UniProt P13693).
T1 construct: gene TPT1; recombinant human TCTP (172 amino acids), codon-optimized, expressed in E. coli, intein tag cleaved on column
T1 sequence (P13693 1-172): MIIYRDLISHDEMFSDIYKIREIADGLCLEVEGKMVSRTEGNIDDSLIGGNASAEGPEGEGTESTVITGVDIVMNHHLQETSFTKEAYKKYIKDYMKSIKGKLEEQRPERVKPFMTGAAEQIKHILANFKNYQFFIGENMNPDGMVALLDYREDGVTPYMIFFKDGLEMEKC
Put plainly: microscale thermophoresis with amine-labeled (BLUE-NHS) purified TCTP, buffer with […] chloroform. The assay is classed as binding. Background: MST reads how a fluorescent partner responds to local heating, with and without ligand.

Assay [2] addresses T1, translationally controlled tumor protein (TCTP). Put plainly: microscale thermophoresis with amine-labeled (BLUE-NHS) purified TCTP. Format: binding.

SMILES strings stand for the structures.

The compound `CC(C)(C)c1ccc(CN2CCN(C(c3ccccc3)c3ccc(Cl)cc3)CC2)cc1` (centres unmarked) [buclizine] returned an equilibrium dissociation constant (Kd) in assay [1] of 433 ± 47.1 µM.

The compound `COc1ccc2c(c1)N(C[C@H](C)CN(C)C)c1ccccc1S2` [levomepromazine] showed a Kd in assay [2] of 57.2 ± 6.49 µM.

Usually Kd stands for a measure of binding affinity in units of concentration. Read a high Kd as weaker binding.
